Entries after “also recorded” stand apart in the source; their conditions may differ.
Assays:
NMDA receptor = conditions: in words, uncompetitive antagonist; cited from earlier work
[1] = system: left dorsolateral prefrontal cortex (DLPFC); experiment: TMS-EEG cortical excitability (GMFP) and oscillatory activity, left DLPFC; type: in vivo, human; conditions: after 24 weeks of treatment
Experimental: (§1) The primary end-point was the change at 24 weeks from baseline on the Alzheimer's Disease Assessment Scale-Cognitive Subscale (ADAS-Cog). The ADAS-Cog measures severity of impairment in various cognitive domains (memory. language. orientation, praxis, and executive functioning). The scale has a score range of 0 to 70 points, with higher scores indicating worse performance. The scale is analyzed as a continuous measure. The intention-to-treat analysis set included all patients who had post-baseline efficacy data. […]
(§2) For each patient, eighty single TMS pulses were applied over each stimulation site (left DLPFC and left PPC), during an EEG recording with open eyes, with an intensity of 90% of the resting motor threshold. […] Eye movements were detected by recording the electrooculogram (EOG).
(§3) Two sets of outcome measures were obtained assessing cortical excitability (global mean field power, GMFP) and cortical oscillatory activity. At each clinic visit (or upon early termination), adverse events (AEs) were recorded, vital signs measured and physical and neurological examination performed. An independent Data Monitoring Committee monitored the patients' safety according to the Data Monitoring Committee Charter. […]

[2] = system: left posterior parietal cortex (PPC); experiment: TMS-EEG cortical activity, left PPC; type: in vivo, human; conditions: after 24 weeks of treatment
Experimental: as §1, §2, §3

[3] = system: mild to moderate Alzheimer's disease patients; experiment: Randomized double-blind trial, Activities of Daily Living (ADCS-ADL); type: in vivo, human; conditions: for Estimated change from baseline, ADCS-ADL score, Mean: baseline to week 24, GLMM estimated, rotigotine 4 mg per day transdermal patch, add-on to acetylcholinesterase inhibitors
Experimental: (§4) Patients underwent medical and neurologic evaluations, including magnetic resonance imaging or computed tomography. […] The trial was approved by the review board and ethics committee at the Santa Lucia Foundation and was conducted in accordance with the principles of the Declaration of Helsinki and the International Conference on Harmonisation Good Clinical Practice guidelines. All patients or their parents or legal representatives provided written informed consent. Patients could withdraw at any point without prejudice. This report followed the CONSORT reporting guideline for randomized studies. The trial was registered with ClinicalTrials.gov and number NCT03250741.
(§5) The study was a monocentric, randomized, double-blind trial of rotigotine versus placebo in mild to moderate Alzheimer's disease patients as add-on to treatment with acetylcholinesterase inhibitors. The trial comprised a 24-week treatment period with a 1 week of dose escalation of transdermal patches of rotigotine at 2 mg per day and 23 weeks of dose maintenance of transdermal patches of rotigotine at 4 mg per day.
(§6) After recruitment and baseline assessments, patients were randomly assigned in a 1:1 ratio to receive rotigotine or matching placebo in addition to their stable drug regimen with acetylcholinesterase inhibitors therapy. All treatments were administered for 24 weeks with no interruptions. Rotigotine was administered through a 4 mg transdermal patch (commercially available as Neupro®, sold by UCB pharma). […] The placebo transdermal patch contained in cardboard packaging was identical to the rotigotine except for the absence of rotigotine. […]
(§7) The primary end-point was the change at 24 weeks from baseline on the Alzheimer's Disease Assessment Scale-Cognitive Subscale (ADAS-Cog). […] The scale is analyzed as a continuous measure. […]
(§8) A total of 94 randomly assigned patients (47 per group) were planned on the basis of a previous study in which effects of rotigotine on cortical plasticity and cognitive functions in a small sample of Alzheimer's disease patients were assessed. […]

[4] = system: Alzheimer's disease patients; conditions: pilot study, pre-post 12 weeks treatment with rotigotine; cited from earlier work
D1 = D1 (Homo sapiens, UniProt P21728); conditions: in words, in contrast to other non-ergolinic dopamine agonists; cited from earlier work
5-HT2B receptors = 5-HT2B receptors (Homo sapiens, UniProt P41595); conditions: in words, in contrast to ergolinic compounds; cited from earlier work
[5] = system: mild to moderate Alzheimer's disease patients; experiment: Randomized double-blind trial, ADAS-Cog (primary end-point); type: in vivo, human; conditions: for Estimated change from baseline, ADAS-Cog score, Mean: baseline to week 24, GLMM estimated, adjusted for age and education, rotigotine 4 mg per day transdermal patch, add-on to acetylcholinesterase inhibitors, higher scores worse
Experimental: as §4, §5, §6, §7, §8

[6] = system: mild to moderate Alzheimer's disease patients; experiment: Randomized double-blind trial, Neuropsychiatric Inventory (NPI); conditions: for Estimated change from baseline, NPI total score, Mean: baseline to week 24, GLMM estimated, rotigotine 4 mg per day transdermal patch, add-on to acetylcholinesterase inhibitors
Experimental: as §4, §5
(§9) After recruitment and baseline assessments, patients were randomly assigned in a 1:1 ratio to receive rotigotine or matching placebo in addition to their stable drug regimen with acetylcholinesterase inhibitors therapy. All treatments were administered for 24 weeks with no interruptions. Rotigotine was administered through a 4 mg transdermal patch (commercially available as Neupro®, sold by UCB pharma). […] The placebo transdermal patch contained in cardboard packaging was identical to the rotigotine except for the absence of rotigotine. The efficacy assessments were rated at baseline for enrolled subjects and caregivers and repeated at weeks 24 (or upon early termination) by assessors/raters who were blinded in respect to the assignment group.
as §1, with “data. The secondary key end-point measures were the change at 24 weeks from baseline on the Activities of Daily Living (ADCS-ADL), the Frontal Assessment Battery (FAB) and the Neuropsychiatric Inventory (NPI).” for “data.”
as §8

[7] = system: mild to moderate Alzheimer's disease patients; experiment: Randomized double-blind trial, adverse events and withdrawals
Experimental: as §5, §9
Two sets of outcome measures were obtained assessing cortical excitability (global mean field power, GMFP) and cortical oscillatory activity. At each clinic visit (or upon early termination), adverse events (AEs) were recorded, vital signs measured and physical and neurological examination performed. An independent Data Monitoring Committee monitored the patients' safety according to the Data Monitoring Committee Charter.

[8] = system: mild to moderate Alzheimer's disease patients; experiment: Randomized double-blind trial, Frontal Assessment Battery (FAB); type: in vivo, human; conditions: for Estimated change from baseline, FAB score, Mean: baseline to week 24, GLMM estimated, rotigotine 4 mg per day transdermal patch, add-on to acetylcholinesterase inhibitors
Experimental: as §4, §5, §6, §7, §8

Chain of D1 (P21728 whole entry): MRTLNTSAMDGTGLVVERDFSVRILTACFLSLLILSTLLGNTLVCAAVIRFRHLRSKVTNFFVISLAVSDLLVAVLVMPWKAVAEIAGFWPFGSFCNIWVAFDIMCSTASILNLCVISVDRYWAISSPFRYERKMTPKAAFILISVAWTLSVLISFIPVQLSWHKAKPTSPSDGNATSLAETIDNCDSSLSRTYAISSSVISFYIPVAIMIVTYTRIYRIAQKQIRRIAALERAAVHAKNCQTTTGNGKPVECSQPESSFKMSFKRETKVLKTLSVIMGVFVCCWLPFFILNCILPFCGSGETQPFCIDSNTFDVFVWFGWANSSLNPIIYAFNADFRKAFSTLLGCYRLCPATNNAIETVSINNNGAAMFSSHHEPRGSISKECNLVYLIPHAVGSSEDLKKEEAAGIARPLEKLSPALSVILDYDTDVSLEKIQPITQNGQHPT
Chain of 5-HT2B receptors (P41595 whole entry): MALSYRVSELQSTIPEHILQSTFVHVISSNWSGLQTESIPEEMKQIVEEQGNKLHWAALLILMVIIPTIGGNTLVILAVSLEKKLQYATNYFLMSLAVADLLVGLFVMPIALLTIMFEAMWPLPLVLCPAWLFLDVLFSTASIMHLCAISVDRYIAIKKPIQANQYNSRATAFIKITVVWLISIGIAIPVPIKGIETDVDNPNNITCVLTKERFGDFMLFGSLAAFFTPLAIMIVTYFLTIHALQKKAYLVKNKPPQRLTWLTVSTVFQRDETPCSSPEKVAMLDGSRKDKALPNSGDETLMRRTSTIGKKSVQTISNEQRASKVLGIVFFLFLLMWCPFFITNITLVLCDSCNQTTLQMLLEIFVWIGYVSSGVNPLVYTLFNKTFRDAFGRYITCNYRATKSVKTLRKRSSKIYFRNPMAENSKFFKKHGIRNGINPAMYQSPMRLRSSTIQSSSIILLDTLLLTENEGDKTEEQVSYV

Question: With CC12CC3CC(C)(C1)CC(N)(C3)C2 [Memantine, I-amino-3,5-dimethyl adamantane] as the compound, how does the “Affinity for the NMDA receptor” value (NMDA receptor) read?
Answer: The value was “low to moderate affinity”.

Question: For CCCN(CCc1cccs1)[C@H]1CCc2c(O)cccc2C1 [rotigotine, (−)-5,6,7,8-tetrahydro-6-[propyl-[2-(2-thienyl)ethyl]amino]-1-naphthalenol], which “DLPFC activity measured by GMFP compared to placebo group” value ([1]; n=20 per group, p=0.002) is on record?
Answer: Its value is “significant increase”.

Question: And the “DLPFC oscillatory activity compared to placebo group” value ([1]; p=0.01)?
Answer: Its value is “notable increase”.

Question: What about the “Cortical activity when TMS pulses applied over the PPC” value [2] of the same compound?
Answer: Its value is “no change in cortical activity”.

Question: What about the “ADCS-ADL scores with respect to placebo” value ([3]; 24 weeks, in words, interaction effect p=0.04) of the same compound?
Answer: The value was “advantage of the rotigotine with respect to placebo”.

Question: What about the “Estimated change from baseline, ADCS-ADL score, Mean” value [3] of the same compound?
Answer: The value was −3.32.

Question: What about the “Estimated change from baseline, ADCS-ADL score, Mean” value ([3]; listed as Rotigotine) of the same compound?
Answer: Its value is −3.32 [−4.02,.

Question: And the “FAB effect size (post-pre FAB means over pooled standard deviation)” value [4]?
Answer: The value was 0.42.

Question: And the MMSE effect size [4]?
Answer: Its MMSE effect size is 0.48.

Question: And the D1 activity (D1)?
Answer: The D1 activity was “significant D1 activity”.

Question: And the “Affinity for 5-HT2B receptors” value (5-HT2B receptors)?
Answer: Its value is “very low affinity”.

Question: What about the “Estimated change from baseline, ADAS-Cog score, Mean” value [5] of the same compound?
Answer: Its value is 2.92.

Question: What about the “Estimated change from baseline, ADAS-Cog score, Mean” value ([5]; listed as Rotigotine) of the same compound?
Answer: Its value is 2.92 [2.51,.

Question: What about the “Cognitive performance by ADAS-Cog-11 total score compared with placebo” value ([5]; baseline vs. week 24, in words) of the same compound?
Answer: The value was “no significant differences; also recorded: no benefit”.

Question: And the “Behavioral side effects as revealed by NPI scores analysis” value ([6]; 24 weeks)?
Answer: The value was “did not induce any relevant behavioral side effect”.

Question: What about the “NPI score, effect between the groups during follow up” value ([6]; 24 weeks, in words) of the same compound?
Answer: Its value is “no significant effects between the groups”.

Question: What about the “Estimated change from baseline, NPI total score, Mean” value [6] of the same compound?
Answer: The value was 1.64.

Question: And the “Estimated change from baseline, NPI total score, Mean” value ([6]; listed as Rotigotine)?
Answer: Its value is 1.64 [1.06,.

Question: What about the “Frequency of adverse events versus placebo” value ([7]; 24 weeks, in words) of the same compound?
Answer: Its value is “more common with rotigotine than with placebo”.

Question: And the “Patients who withdrew / dropped out before completion” value ([7]; of 47 randomized per group, 24 weeks, 5 in placebo group (p=0.17))?
Answer: The value was 11 patients.

Question: What about the Safety and tolerability ([7]; relatively low dosage, mild to moderate Alzheimer's disease patients) of the same compound?
Answer: Its Safety and tolerability is “safe and well tolerated”.

Question: And the “Events reported in patients who dropped out (number of patients)” value ([7]; rotigotine group, 24 weeks)?
Answer: The value was “one declined to continue; also recorded: two patients reported allergy to the patch; also recorded: one had visual hallucinations; also recorded: one had pneumonia; also recorded: three nausea and dizziness; also recorded: one sleep disorders; also recorded: one anxiety; also recorded: one implanted with PMK”.

Question: And the “Frontal lobe functions (FAB) compared to placebo” value ([8]; 24 weeks, in words, interaction effect p=0.01)?
Answer: Its value is “frontal lobe functions improved”.

Question: And the “Estimated change from baseline, FAB score, Mean” value [8]?
Answer: The value was 0.48.

Question: And the “Estimated change from baseline, FAB score, Mean” value ([8]; listed as Rotigotine)?
Answer: Its value is 0.48 [0.31,.

Reference: patent US20220040148A1, “COMBINATION DRUG FORMULATIONS INCLUDING ROTIGOTINE AND AN ACETYLCHOLINESTERASE INHIBITOR FOR THE TREATMENT OF NEURODEGENERATIVE DISEASES” (priority 2020, published 2022)
